{"source": "patent US12357723B2", "about": "“Antimicrobial silver iodate” (Innovotech, Inc., priority 2012, dated 2025)", "key": {"[1]": {"settings": "for Grain size: 90° C."}, "[2]": {"experiment": "Ag5IO6 solubility in water and saline, OECD Method (105) flask", "type": "physicochemical", "source_text": "The purpose of this study was to develop a basic understanding of the solubility (and stability) of Ag5IO6 in pure water and 0.9% (physiological saline), following OECD Method (105)—flask."}, "[3]": {"experiment": "Basic compatibility of Ag5IO6 with gels (visual, pH, UV-Vis, XRD)", "type": "physicochemical", "source_text": "The purpose of this study was to determine whether Ag5IO6 could be incorporated into various gels without reacting with the gels. Ag5IO6 powder was combined with various commercially available hydrogels and then visually examined for stability, along with UV-Vis analysis and x-ray diffraction.\nGels selected: Guardian Laboratories AquaThik™ (Xanthan gum, PEG-180; 3% in water); Lubrajel® RC (Water, glycerin, propylene glycol, polyacrylic acid, sodium polyacrylate, 0.18% methylparaben, 0.02% propylparaben), and Lubrajel® PF (Glycerin, glyceryl acrylate/acrylic acid copolymer); SteriLub™ (unknown composition); BASF Pluronic® F127+Carbowax 600 (Polyoxyethylene-polyoxypropylene block copolymer; 18% Pluronic, 15% Carbowax 600); ConvaTec DuoDerm® Hydroactive® Sterile Gel (pectin, sodium carboxymethylcellulose); MoInlycke Normlgel® (0.9% NaCl, H2O, xanthan gum); Smith & Nephew IntraSite Gel (Water>60%, propylene glycol 10-30%, absorbent polymer<10%-crilanomer, a Graft-T starch copolymer) and SoloSite Gel (Water>60%, glycerol 10-30%, absorbent polymer<10%, allantoin<1%, antiseptic/preservative<1%); carboxymethylcellulose gel (4% in water); Cremophor; and Gelrite (0.4% in water).\nFor each gel, the samples were mixed in a small glass container with fine Ag5IO6 powder to generate 500 ppm Ag5IO6 in the gels. Each of the above formulations were examined for visual signs of instability, such as dramatic viscosity changes, color changes, release of gas, deposition of precipitate that appears different from the original Ag5IO6, and temperature change during stirring (heat release).\nUV-Vis Analysis: Samples were diluted to 1/10th their original concentration. For UV-Vis blanks, control gels (with no Ag5IO6) were prepared as described for each gel, and diluted to 1/10th as well. UV-Vis measurements were performed between 190-500 nm.\npHs of the gel formulations were measured with and without the Ag5IO6 added using pH indicator strips."}, "[4]": {"experiment": "Ag5IO6 stability in solvents (isothermal TAM III heat flow, XRD)", "type": "physicochemical", "protocol": "The purpose of this study was to determine whether or not Ag5IO6 interacts with methanol, tetrahydrofuran, acetone, and acetonitrile. […] of Ag5IO6 was placed in a vial, 2 mL of the solvent was added, and the vial was placed in a TAM III for an isothermal run at room temperature for >24 h with solvent only as the reference. The heat flow was measured. After the run was complete, the solvents were allowed to flash off and the solids collected were submitted to XRD. Samples exposed following essentially the same method for only 18 h were also submitted for XRD"}}, "note": "Where two headings read alike, the source gives them in different places.", "data": [{"smiles": "[Ag+].[Ag+].[Ag+].[Ag+].[Ag+].[O-][I+]([O-])([O-])([O-])([O-])[O-]", "note": "[Ag5IO6, pentasilver hexaoxoiodate]", "values": [{"measurement": "Grain size", "setting": "[1]; Day 0", "value": 14, "unit": "Å"}, {"measurement": "Grain size", "setting": "[1]; Day 14", "value": 62, "unit": "Å"}, {"measurement": "Grain size", "setting": "[1]; Day 28", "value": 94, "unit": "Å"}, {"measurement": "Composition remaining Ag5IO6", "setting": "[1]; 672 h", "value": 100, "unit": "%"}, {"measurement": "Shelf life", "setting": "[1]; room temperature, extrapolated from accelerated storage", "value": "> 2", "unit": "years"}, {"measurement": "Solubility", "setting": "[2]; ddH2O", "value": "24.41 ± 0.87", "unit": "µg/mL"}, {"measurement": "pH of solution", "setting": "[2]; in ddH2O", "value": 8}, {"measurement": "Solid material converted to Ag metal (XRD)", "setting": "[2]; in ddH2O, end of experiment", "value": 0.1, "unit": "%"}, {"measurement": "Solid material remaining as Ag5IO6 (XRD)", "setting": "[2]; in ddH2O, end of experiment", "value": "approximately 99.9%"}, {"measurement": "pH of solution", "setting": "[2]; in saline", "value": 10}, {"measurement": "Solid material converted to AgCl (XRD)", "setting": "[2]; in saline, end of experiment", "value": "approximately 25%"}, {"measurement": "Solubility", "setting": "[2]; saline (0.9%)", "value": "0.61 ± 0.05", "unit": "µg/mL"}, {"measurement": "Ag5IO6 purity by XRD after mixing into gel", "setting": "[3]; 500 ppm Ag5IO6 in AquaThik gel", "value": 100, "unit": "%"}, {"measurement": "XRD: reaction of Ag5IO6 with gel", "setting": "[3]; 500 ppm Ag5IO6 in Cremophor gel", "value": "no Ag5IO6 detected by the XRD analysis"}, {"measurement": "XRD: reaction of Ag5IO6 with gel", "setting": "[3]; 500 ppm Ag5IO6 in DuoDerm hydrogel", "value": "remained pure"}, {"measurement": "XRD: reaction of Ag5IO6 with gel", "setting": "[3]; 500 ppm Ag5IO6 in Gelrite (0.4% in water)", "value": "did not react"}, {"measurement": "XRD: reaction of Ag5IO6 with gel", "setting": "[3]; 500 ppm Ag5IO6 in IntraSite gel", "value": "no reaction products"}, {"measurement": "XRD: reaction of Ag5IO6 with gel", "setting": "[3]; 500 ppm Ag5IO6 in Lubrajel PF", "value": "had not reacted"}, {"measurement": "XRD: reaction of Ag5IO6 with gel", "setting": "[3]; 500 ppm Ag5IO6 in Lubrajel RC", "value": "did not react"}, {"measurement": "XRD: reaction of Ag5IO6 with gel", "setting": "[3]; 500 ppm Ag5IO6 in Normlgel (0.9% NaCl), AgCl found", "value": "incompatible under these conditions with this gel for long term storage"}, {"measurement": "Visual signs of instability after addition of Ag5IO6", "setting": "[3]; 500 ppm Ag5IO6 in Pluronic F127 plus Carbowax 600, no XRD", "value": "undesirable physical changes in the gel"}, {"measurement": "XRD: reaction of Ag5IO6 with gel", "setting": "[3]; 500 ppm Ag5IO6 in SoloSite gel", "value": "no reaction products"}, {"measurement": "Ag5IO6 purity by XRD after mixing into gel", "setting": "[3]; 500 ppm Ag5IO6 in SteriLub gel", "value": 100, "unit": "%"}, {"measurement": "XRD: reaction of Ag5IO6 with gel", "setting": "[3]; 500 ppm Ag5IO6 in carboxymethylcellulose gel (4% in water)", "value": "not reactive"}, {"measurement": "Rank of solubility in organic solvents", "setting": "[4]", "value": "methanol>>THF>acetone>acetonitrile"}, {"measurement": "Onset of significant reaction", "setting": "[4]; acetonitrile (slower onset), room temperature", "value": "about 56 h"}, {"measurement": "Time blended without substantial reaction", "setting": "[4]; all solvents (methanol, tetrahydrofuran, acetone, acetonitrile), room temperature", "value": "< 18", "unit": "h"}, {"measurement": "Onset of significant reaction", "setting": "[4]; methanol, room temperature", "value": "about 33 h"}, {"measurement": "Onset of significant reaction", "setting": "[4]; solvent printed as THE, room temperature", "value": "about 56 h"}]}]}
